Measurements taken from US8455491B2, “6-cycloamino-3-(pyridazin-4-yl)imidazo[1,2-b]pyridazine and derivatives and pharmaceutical compositions comprising the same” (Sanofi, priority 2007, dated 2013).

Target: T1, casein kinase 1 epsilon (CK1 epsilon) (Homo sapiens, UniProt P49674)
T1 construct: Invitrogen Corporation (named as alternative)
Assay: Filter-plate assay of ATP-33P, inhibition of casein phosphorylation by CK1 epsilon
Format: biochemical
Conditions: casein substrate, ATP 10 μM, 2 hours at ambient temperature
Experimental: The capacity of the compounds of the invention to inhibit the phosphorylation of casein by casein kinase 1 epsilon and delta may be evaluated according to the procedure described in US 2005/0131012.
Filter-Plate Assay of ATP-^33P for the Screening of CK1 Epsilon Inhibitors:
The effect of the compounds on inhibition of the phosphorylation of casein by the enzyme casein kinase 1 epsilon (CK1 epsilon) is measured, using a casein assay with filtration of ATP-^33P in vitro.
Casein kinase 1 epsilon (0.58 mg/ml) is obtained via fermentation and purification processes performed according to methods that are well known to those skilled in the art, or may also be obtained from Invitrogen Corporation™ (human CK1 epsilon).
The compounds are tested at five different concentrations so as to generate IC50 values, i.e. the concentration at which a compound is capable of inhibiting the enzymatic activity by 50%, or alternatively the percentage of inhibition at a concentration of 10 micromolar.
“U”-bottomed Falcon plates are prepared by placing 5 μL of solutions of the compounds according to the invention at concentrations of 10, 1, 0.1, 0.01 or 0.001 μM in various wells. The solutions of the compounds according to the invention at these various concentrations are prepared by diluting in a test buffer (50 mM Tris, pH 7.5, […], 2 mM DTT and 1 mM EGTA) a stock solution in DMSO at a concentration of 10 mM. Next, 5 μL of dephosphorylated casein are added to a final concentration of 0.2 μg/μL, 20 μl of CK1 epsilon to a final concentration of 3 ng/μl, and 20 μl of ATP-^33P to a final concentration of 0.02 μCi/μl mixed with cold ATP (10 μM final—approximately 2×10^6 CPM per well). The final total test volume per well is equal to 50 μl.
The “U”-bottomed Falcon® test plate mentioned above is vortexed, and then incubated at ambient temperature for 2 hours. After 2 hours, the reaction is stopped by adding an ice-cold solution of 65 μl of ATP (2 mM) prepared in test buffer.
100 μl of the reaction mixture are then transferred from the “U”-bottomed Falcon® plate into Millipore® MAPH filter plates, preimpregnated with 25 μl of ice-cold 100% TCA. […]
The plates are left to dry overnight at ambient temperature. […] The radiation emitted by each well is then measured for 2 minutes in a Packard® Topcount NXT scintillation counter, in which the values of CPM/well are measured.
The percentage inhibition of the capacity of the enzyme to phosphorylate the substrate (casein) is determined for each concentration of compound tested. These inhibition data expressed as percentages are used to calculate the IC50 value for each compound compared with the controls.
The kinetic studies determined the KM value for ATP as being 21 μM in this test system.

T1 sequence (P49674 whole entry): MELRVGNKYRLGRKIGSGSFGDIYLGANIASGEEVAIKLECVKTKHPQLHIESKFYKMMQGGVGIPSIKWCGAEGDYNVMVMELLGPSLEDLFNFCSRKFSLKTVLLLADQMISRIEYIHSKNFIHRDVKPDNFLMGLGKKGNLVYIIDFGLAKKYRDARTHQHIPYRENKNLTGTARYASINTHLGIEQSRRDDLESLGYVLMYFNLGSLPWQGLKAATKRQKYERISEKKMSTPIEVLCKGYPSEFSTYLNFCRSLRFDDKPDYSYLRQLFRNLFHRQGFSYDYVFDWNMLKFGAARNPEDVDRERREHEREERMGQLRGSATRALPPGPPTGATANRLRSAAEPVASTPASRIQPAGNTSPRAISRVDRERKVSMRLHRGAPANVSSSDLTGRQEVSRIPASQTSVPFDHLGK

Row | IC50 [nM] | SMILES
1 | 54 to 69 | CC(C)N1CC2CN(c3ccc4nc(-c5ccc(F)cc5)c(-c5ccnnc5)n4n3)CC2C1 (stereo not drawn) [compound 28, 2-(4-fluorophenyl)-6-(5-isopropylhexahydropyrrolo[3,4-c]pyrrol-2-(1H)-yl)-3-pyridazin-4-yl-imidazo[1,2-b]pyridazine]
2 | 134 to 166 | CC(C)(O)CCN1CCN(c2ccc3nc(-c4ccc(F)cc4)c(-c4ccnnc4)n3n2)CC1 [compound 21, 4-{4-[2-(4-fluorophenyl)-3-pyridazin-4-yl-imidazo[1,2-b]pyridazin-6-yl]piperazin-1-yl}-2-methylbutan-2-ol]

Test system: not given
Assay: not given
Conditions: not given

Row | melting point [°C] | SMILES
3 | 201 to 203 | CC(C)N1C[C@@H]2C[C@H]1CN2c1ccc2nc(-c3ccc(F)cc3)c(-c3ccnnc3)n2n1 [compound 25, 2-(4-fluorophenyl)-6-(5-isopropyl-(1S,4S)-2,5-diazabicyclo[2.2.1]hept-2-yl)-3-pyridazin-4-yl-imidazo[1,2-b]pyridazine]
4 | 182 to 184 | Fc1ccc(-c2nc3ccc(N4CCC(N5CCCC5)C4)nn3c2-c2ccnnc2)cc1 (stereo not drawn) [compound 33, 6-[1,3]bipyrrolidinyl-1′-yl-2-(4-fluorophenyl)-3-pyridazin-4-yl-imidazo[1,2-b]pyridazine]
5 | 212 to 214 | Fc1ccc(-c2nc3ccc(N4CCC5(CC4)CNCCO5)nn3c2-c2ccnnc2)cc1 [compound 32, 9-[2-(4-fluorophenyl)-3-pyridazin-4-yl-imidazo[1,2-b]pyridazin-6-yl]-1-oxa-4,9-diaza-spiro[5.5]undecane]
6 | 255 to 257 | Cc1cc(N2CC3CN(C)CC3C2)nn2c(-c3ccnnc3)c(-c3ccc(F)cc3)nc12 (stereo not drawn) [compound 44, 2-(4-fluorophenyl)-8-methyl-6-(5-methylhexahydropyrrolo[3,4-c]pyrrol-2(1H)-yl)-3-pyridazin-4-ylimidazo[1,2-b]pyridazine]
7 | 203 to 205 | Fc1ccc(-c2nc3ccc(N4CCC5(CCCNC5)CC4)nn3c2-c2ccnnc2)cc1 [compound 31, 9-[2-(4-fluorophenyl)-3-pyridazin-4-yl-imidazo[1,2-b]pyridazin-6-yl]-2,9-diaza-spiro[5.5]undecane]
8 | 186 to 188 | CN1CC2CN(c3ccc4nc(-c5ccc(F)c(F)c5)c(-c5ccnnc5)n4n3)CC2C1 (stereo not drawn) [compound 45, 2-(3,4-difluorophenyl)-6-(5-methylhexahydropyrrolo[3,4-c]pyrrol-2(1H)-yl)-3-pyridazin-4-ylimidazo[1,2-b]pyridazine]
9 | 154 to 157 | CN1CC2CN(c3ccc4nc(-c5ccccc5)c(-c5ccnnc5)n4n3)CC2C1 (stereo not drawn) [compound 41, 6-(5-methylhexahydropyrrolo[3,4-c]pyrrol-2(1H)-yl)-2-phenyl-3-pyridazin-4-ylimidazo[1,2-b]pyridazine]
10 | 168 to 170 | CN1CC2CN(c3ccc4nc(-c5cccc(F)c5)c(-c5ccnnc5)n4n3)CC2C1 (stereo not drawn) [compound 42, 2-(3-fluorophenyl)-6-(5-methylhexahydropyrrolo[3,4-c]pyrrol-2(1H)-yl)-3-pyridazin-4-ylimidazo[1,2-b]pyridazine]
11 | 184 to 189 | FCC1CN(c2ccc3nc(-c4ccc(F)cc4)c(-c4ccnnc4)n3n2)CCN1 (racemic) [compound 40, (+/−)-6-(3-fluoromethylpiperazin-1-yl)-2-(4-fluorophenyl)-3-pyridazin-4-ylimidazo[1,2-b]pyridazine]
12 | 196 to 198 | Fc1ccc(-c2nc3ccc(N4CCC(N5CCCC5)CC4)nn3c2-c2ccnnc2)cc1 [compound 34, 2-(4-fluorophenyl)-3-pyridazin-4-yl-6-(4-pyrrolidin-1-yl-piperidin-1-yl)-imidazo[1,2-b]pyridazine]

The next lines start with the molecule.

Row | SMILES | melting point [°C]
13 | CC(C)N1CCN(c2ccc3nc(-c4cccc(F)c4)c(-c4ccnnc4)n3n2)CC1 [compound 10, 2-(3-fluorophenyl)-6-(4-isopropylpiperazin-1-yl)-3-pyridazin-4-yl-imidazo[1,2-b]pyridazine] | 197 to 199
14 | OCCN1C[C@@H]2C[C@H]1CN2c1ccc2nc(-c3ccc(F)cc3)c(-c3ccnnc3)n2n1 [compound 24, 2-{5-[2-(4-fluorophenyl)-3-pyridazin-4-yl-imidazo[1,2-b]pyridazin-6-yl]-(1S,4S)-2,5-diazabicyclo[2.2.1]hept-2-yl}-ethanol] | 175 to 177
15 | C[C@@H]1CN(c2ccc3nc(-c4ccc(F)cc4)c(-c4ccnnc4)n3n2)C[C@H](C)N1 [compound 4, 6-(cis-3,5-dimethylpiperazin-1-yl)-2-(4-fluorophenyl)-3-pyridazin-4-yl-imidazo[1,2-b]pyridazine] | 197 to 199
16 | Cc1cc(C)cc(-c2nc3ccc(N4CCN(C(C)C)CC4)nn3c2-c2ccnnc2)c1 [compound 13, 2-(3,5-dimethylphenyl)-6-(4-isopropylpiperazin-1-yl)-3-pyridazin-4-yl-imidazo[1,2-b]pyridazine] | 183 to 184
17 | Fc1ccc(-c2nc3ccc(N4C[C@@H]5C[C@H]4CN5)nn3c2-c2ccnnc2)cc1 [compound 23, 6-((1S,4S)-2,5-diazabicyclo[2.2.1]hept-2-yl)-2-(4-fluorophenyl)-3-pyridazin-4-yl-imidazo[1,2-b]pyridazine] | 205 to 207
18 | CC(C)(O)CN1CCN(c2ccc3nc(-c4ccc(F)cc4)c(-c4ccnnc4)n3n2)CC1 [compound 20, 1-{4-[2-(4-fluorophenyl)-3-pyridazin-4-yl-imidazo[1,2-b]pyridazin-6-yl]piperazin-1-yl}-2-methylpropan-2-ol] | 200 to 202
19 | FCCN1CCN(c2ccc3nc(-c4ccccc4)c(-c4ccnnc4)n3n2)CC1 [compound 7, 6-[4-(2-fluoroethyl)piperazin-1-yl]-2-phenyl-3-pyridazin-4-yl-imidazo[1,2-b]pyridazine] | 156 to 158
20 | CC1(C)CN(c2ccc3nc(-c4ccc(F)cc4)c(-c4ccnnc4)n3n2)CCN1 [Compound No. 3, 6-(3,3-dimethylpiperazin-1-yl)-2-(4-fluorophenyl)-3-pyridazin-4-yl-imidazo[1,2-b]pyridazine] | 226 to 228
21 | CC(C)(O)CCN1CCN(c2ccc3nc(-c4ccc(F)cc4)c(-c4ccnnc4)n3n2)CC1 [compound 21, 4-{4-[2-(4-fluorophenyl)-3-pyridazin-4-yl-imidazo[1,2-b]pyridazin-6-yl]piperazin-1-yl}-2-methylbutan-2-ol] | 148 to 150
